# Results as given in patent publication US9351955B2, “Compounds and pharmaceutical compositions thereof for the treatment of cystic fibrosis” (Galapagos NV, priority 2013, dated 2016).
# How the values were obtained:
# Type in all cases: cell-based
# [1] = target: T1, CFTR ΔF508 mutant (Homo sapiens, UniProt P13569, DEL508-508); experiment: YFP-halide influx assay for the CFTR-ΔF508 mutation (96 well, CFBE41o- cells); conditions: compounds of the invention, 96 well, forskolin 10.67 μM, read-out: EC50 measured by YFP-halide influx assay for the CFTR-ΔF508
# T1 construct: expressed in transfected cells; host or cells: CFBE41o- (adenoviral transduction)
# T1 sequence (P13569 with tags, fused parts or gaps DEL508-508): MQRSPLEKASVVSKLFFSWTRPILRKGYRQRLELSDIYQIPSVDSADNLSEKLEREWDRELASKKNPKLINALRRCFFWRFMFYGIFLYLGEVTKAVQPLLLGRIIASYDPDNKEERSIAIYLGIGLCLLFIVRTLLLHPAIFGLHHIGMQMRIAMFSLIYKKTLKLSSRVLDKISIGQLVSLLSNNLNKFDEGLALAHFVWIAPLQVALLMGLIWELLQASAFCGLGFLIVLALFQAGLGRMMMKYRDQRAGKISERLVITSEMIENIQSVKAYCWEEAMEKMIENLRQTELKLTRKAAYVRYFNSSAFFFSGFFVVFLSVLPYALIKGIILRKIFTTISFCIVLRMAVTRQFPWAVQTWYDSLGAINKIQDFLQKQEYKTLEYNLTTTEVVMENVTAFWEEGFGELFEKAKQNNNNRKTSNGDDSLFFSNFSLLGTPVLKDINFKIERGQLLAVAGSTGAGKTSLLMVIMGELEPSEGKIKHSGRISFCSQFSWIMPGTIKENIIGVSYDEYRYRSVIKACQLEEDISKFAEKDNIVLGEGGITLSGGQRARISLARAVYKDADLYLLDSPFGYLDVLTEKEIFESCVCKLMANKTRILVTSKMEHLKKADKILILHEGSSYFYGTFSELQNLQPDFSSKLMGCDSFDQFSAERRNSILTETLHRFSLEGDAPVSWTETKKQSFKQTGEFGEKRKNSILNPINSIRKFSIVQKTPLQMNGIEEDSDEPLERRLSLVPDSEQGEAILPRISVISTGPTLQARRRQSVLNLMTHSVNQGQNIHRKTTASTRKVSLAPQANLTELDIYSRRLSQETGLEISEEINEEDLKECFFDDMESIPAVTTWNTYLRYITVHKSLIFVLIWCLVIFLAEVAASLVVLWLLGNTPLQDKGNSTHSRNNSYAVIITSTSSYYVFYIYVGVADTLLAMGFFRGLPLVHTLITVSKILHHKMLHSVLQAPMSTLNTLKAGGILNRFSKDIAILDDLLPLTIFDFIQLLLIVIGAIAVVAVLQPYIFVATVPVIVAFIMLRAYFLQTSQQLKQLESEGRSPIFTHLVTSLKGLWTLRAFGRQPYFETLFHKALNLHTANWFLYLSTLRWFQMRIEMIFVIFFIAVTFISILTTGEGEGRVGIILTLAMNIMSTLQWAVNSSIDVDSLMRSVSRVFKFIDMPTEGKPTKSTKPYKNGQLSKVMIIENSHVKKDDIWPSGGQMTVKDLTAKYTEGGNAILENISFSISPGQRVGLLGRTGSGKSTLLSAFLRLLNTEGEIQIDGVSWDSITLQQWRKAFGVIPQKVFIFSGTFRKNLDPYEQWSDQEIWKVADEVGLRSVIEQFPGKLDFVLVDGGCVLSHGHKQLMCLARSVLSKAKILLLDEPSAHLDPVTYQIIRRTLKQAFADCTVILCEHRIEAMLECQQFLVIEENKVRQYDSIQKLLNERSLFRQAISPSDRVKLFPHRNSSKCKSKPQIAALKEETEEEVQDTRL
# Excerpt: 6.1. YFP-Halide Influx Assay for the CFTR-ΔF508 Mutation
# (§1) The YFP halide influx assay measures the functionality of the cystic fibrosis Transmembrane Conductance regulator (CFTR) channels in the cystic fibrosis bronchial epithelium cell line CFBE41o-. The assay is used to evaluate the capacity of compounds to increase the open probability of existing CFTR channels in the membrane. It makes use of the observation that the yellow fluorescent protein (YFP) variant YFP H148Q, I152L has its fluorescence substantially quenched by halide ions like Cl^− and I^−. (Galietta et al., 2001; Nagai et al., 2002)
# For this purpose, CFBE410-cells are seeded in 96 well plates (6000 CFBE cells/well). One day after seeding, the CFBE cells are transduced with adenoviral vectors that direct the expression of the CFTR ΔF508 mutant and of the YFP reporter. Cells are incubated at 27° C., 5% CO2 for 24 hours so as to allow for the proper folding and migration to the membrane of the CFTR channel or treated with a CFTR modulator during 24 h at 37° C.
# (§2) The F induced quenching of fluorescence is recorded immediately after injection of I^− for 7 seconds. The capacity of a compound to increase the channel opening is directly correlated with the decrease in fluorescence, and is expressed as (1-(fluorescence after 7 seconds (F)/fluorescence before injection (F0))) and an EC50 can be derived from a (1−F/F0) vs compound concentration plot.
# [2] = target: T2, CFTR-R117H (Homo sapiens, UniProt P13569, R117H); experiment: YFP-halide influx assay for the CFTR-R117H; conditions: CFTR-R117H mutant; read-out: EC50 measured by YFP-halide influx assay for the CFTR-R117H
# T2 construct: expressed in transfected cells
# T2 sequence (P13569 whole entry R117H): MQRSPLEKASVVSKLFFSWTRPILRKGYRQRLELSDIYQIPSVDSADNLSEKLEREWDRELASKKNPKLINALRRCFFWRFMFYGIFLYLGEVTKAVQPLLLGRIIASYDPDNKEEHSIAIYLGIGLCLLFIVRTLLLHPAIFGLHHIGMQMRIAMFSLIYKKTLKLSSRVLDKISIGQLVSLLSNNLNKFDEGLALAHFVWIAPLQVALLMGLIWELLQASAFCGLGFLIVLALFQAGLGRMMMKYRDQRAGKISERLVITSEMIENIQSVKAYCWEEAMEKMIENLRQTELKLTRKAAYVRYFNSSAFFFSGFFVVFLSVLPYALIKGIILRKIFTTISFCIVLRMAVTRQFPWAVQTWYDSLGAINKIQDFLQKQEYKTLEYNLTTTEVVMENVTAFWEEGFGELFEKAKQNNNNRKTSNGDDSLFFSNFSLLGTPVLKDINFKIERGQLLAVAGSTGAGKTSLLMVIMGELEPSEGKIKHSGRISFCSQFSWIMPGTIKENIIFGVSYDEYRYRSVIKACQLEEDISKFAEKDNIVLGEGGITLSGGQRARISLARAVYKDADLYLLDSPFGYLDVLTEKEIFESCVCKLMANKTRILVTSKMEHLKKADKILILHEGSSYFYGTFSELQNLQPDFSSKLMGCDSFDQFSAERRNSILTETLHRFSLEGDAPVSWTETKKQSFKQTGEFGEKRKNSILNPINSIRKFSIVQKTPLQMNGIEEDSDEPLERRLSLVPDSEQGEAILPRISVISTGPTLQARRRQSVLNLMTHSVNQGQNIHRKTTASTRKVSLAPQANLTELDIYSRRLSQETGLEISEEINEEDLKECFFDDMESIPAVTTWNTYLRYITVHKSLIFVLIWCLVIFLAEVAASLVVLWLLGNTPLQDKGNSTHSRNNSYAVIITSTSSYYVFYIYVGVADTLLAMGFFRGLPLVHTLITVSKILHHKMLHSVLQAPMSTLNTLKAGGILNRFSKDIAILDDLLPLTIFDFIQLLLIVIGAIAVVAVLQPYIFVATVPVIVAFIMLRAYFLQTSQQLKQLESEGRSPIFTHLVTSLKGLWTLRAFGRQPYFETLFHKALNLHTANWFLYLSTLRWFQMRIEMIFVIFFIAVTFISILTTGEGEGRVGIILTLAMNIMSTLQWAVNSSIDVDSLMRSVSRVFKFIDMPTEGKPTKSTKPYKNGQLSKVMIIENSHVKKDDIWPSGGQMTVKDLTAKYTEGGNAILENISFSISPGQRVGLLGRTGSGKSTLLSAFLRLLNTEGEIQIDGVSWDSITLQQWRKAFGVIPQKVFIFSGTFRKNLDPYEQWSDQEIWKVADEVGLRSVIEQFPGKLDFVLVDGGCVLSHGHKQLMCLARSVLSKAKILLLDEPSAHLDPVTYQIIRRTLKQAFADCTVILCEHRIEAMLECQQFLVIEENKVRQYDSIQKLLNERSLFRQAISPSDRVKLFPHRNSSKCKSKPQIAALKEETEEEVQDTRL
# Excerpt: as §1, with “channels.” for “channels in the cystic fibrosis bronchial epithelium cell line CFBE41o-.”, “channel opening” for “open probability”, “existing mutant” for “existing”, “I152L, F47L” for “I152L”, “2001)” for “2001; Nagai et al., 2002)”
# (§3) For this purpose, HEK293-cells are seeded in 96 well plates. During seeding, the cells are reverse-transfected with plasmid vectors that direct the expression of the CFTR G551D mutant and of the YFP reporter. Cells are incubated at 37° C., 5% CO2 for 24 hours so as to allow for sufficient expression of the CFTR protein.
# as §2, with “I^−-induced” for “F induced”, “(1−(fluorescence” for “(1-(fluorescence”
# (§4) Similar YHA assays were developed for other channel gating defective or channel conductance defective CFTR mutants to determine effect of compound on channel activity. Examples of mutants are G178R, G1349D, S549N, R117H, R334W. This assay is also used for additional class I CFTR mutants, including G542X, W1282X; class II mutants including N1303K, and for class III mutants including S1251N; or wild-type CFTR.
# [3] = target: T3, CFTR-G178R (Homo sapiens, UniProt P13569, G178R); experiment: YFP-halide influx assay for the CFTR-G178R; conditions: read-out: EC50 measured by YFP-halide influx assay for the CFTR-G178R
# T3 construct: expressed in transfected cells
# T3 sequence (P13569 whole entry G178R): as the sequence (P13569 whole entry R117H) above, with H117R, G178R counted along it
# Excerpt: as §1, with “channels.” for “channels in the cystic fibrosis bronchial epithelium cell line CFBE41o-.”, “channel opening” for “open probability”, “existing mutant” for “existing”, “I152L, F47L” for “I152L”, “2001)” for “2001; Nagai et al., 2002)”
# as §3
# as §2, with “I^−-induced” for “F induced”, “(1−(fluorescence” for “(1-(fluorescence”
# as §4
# [4] = target: T4, CFTR-G1349D (Homo sapiens, UniProt P13569, G1349D); experiment: YFP-halide influx assay for the CFTR-G1349D; conditions: CFTR-G1349D mutant; read-out: EC50 measured by YFP-halide influx assay for the CFTR-G1349D
# T4 construct: expressed in transfected cells
# T4 sequence (P13569 whole entry G1349D): as the sequence (P13569 whole entry R117H) above, with H117R, G1349D counted along it
# Excerpt: as §1, with “channels.” for “channels in the cystic fibrosis bronchial epithelium cell line CFBE41o-.”, “channel opening” for “open probability”, “existing mutant” for “existing”, “I152L, F47L” for “I152L”, “2001)” for “2001; Nagai et al., 2002)”
# as §3
# as §2, with “I^−-induced” for “F induced”, “(1−(fluorescence” for “(1-(fluorescence”
# as §4
# [5] = target: T1, CFTR ΔF508 mutant; experiment: YFP-halide influx assay for the CFTR-ΔF508 mutation (384 well, CFBE41o- cells, FDSS/μCell); conditions: forskolin 10.67 μM, fluorescence after 36 seconds, read-out: EC50 measured by YFP-halide influx assay for the CFTR-ΔF508
# In short: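 CFBE41o- cells were adenovirally transduced with ΔF508 CFTR and the YFP H148Q/I152L reporter. Cells were then held 24 h at 27 °C or treated 24 h at 37 °C with a CFTR modulator. Iodide-induced quench was recorded for 2 min, and EC50 was derived from 1−F/F0 at 36 s against compound concentration.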
# [6] = target: T5, CFTR-S549N (Homo sapiens, UniProt P13569, S549N); experiment: YFP-halide influx assay for the CFTR-S549N; conditions: CFTR-S549N mutant; read-out: EC50 measured by YFP-halide influx assay for the CFTR-S549N
# T5 construct: expressed in transfected cells
# T5 sequence (P13569 whole entry S549N): as the sequence (P13569 whole entry R117H) above, with H117R, S549N counted along it
# Excerpt: as §1, with “channels.” for “channels in the cystic fibrosis bronchial epithelium cell line CFBE41o-.”, “channel opening” for “open probability”, “existing mutant” for “existing”, “I152L, F47L” for “I152L”, “2001)” for “2001; Nagai et al., 2002)”
# as §3
# as §2, with “I^−-induced” for “F induced”, “(1−(fluorescence” for “(1-(fluorescence”
# as §4
# [7] = target: T6, CFTR G551D mutant (Homo sapiens, UniProt P13569, G551D); experiment: YFP-halide influx assay for the CFTR-G551D mutation (HEK293 cells); conditions: HEK293 cells expressing CFTR G551D and YFP reporter; forskolin 10.67 μM; read-out: EC50 measured by YFP-halide influx assay for the CFTR-G551D
# T6 construct: expressed in transfected cells; host or cells: HEK293 (reverse transfection with plasmids)
# T6 sequence (P13569 whole entry G551D): as the sequence (P13569 whole entry R117H) above, with H117R, G551D counted along it
# In short: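 HEK293 cells reverse-transfected with CFTR G551D and halide-sensitive YFP, expressed 24 h at 37 °C. Iodide-induced fluorescence quench recorded for 7 s after I^− injection; response as 1−F/F0, EC50 from concentration plot.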
SMILES,EC50 [1] [µM],EC50 [2] [µM],EC50 [3] [µM],EC50 [4] [µM],EC50 [5] [µM],EC50 [6] [µM],EC50 [7] [µM]
"COCc1cc(C(=O)Nc2sc3c(c2C(N)=O)CC(C)(C)OC3(C)C)n[nH]1 [Compound 42, N-(3-carbamoyl-5,5,7,7-tetramethyl-5,7-dihydro-4H-thieno[2,3-c]pyran-2-yl)-5-(methoxymethyl)-1H-pyrazole-3-carboxamide]",0.0122,0.193,0.156,0.678,0.0153,0.508,–
"CC1(C)Cc2c(sc(NC(=O)c3n[nH]cc3C3=COCCO3)c2C(N)=O)C(C)(C)O1 [Compound 94, N-(3-carbamoyl-5,5,7,7-tetramethyl-4H-thieno[2,3-c]pyran-2-yl)-4-(2,3-dihydro-1,4-dioxin-5-yl)-1H-pyrazole-3-carboxamide]",–,0.147,0.0676,0.672,0.0301,0.345,0.541
"CC1(C)Cc2c(sc(NC(=O)[C@@H](O)CC3CC3)c2C(N)=O)C(C)(C)O1 [Compound 98, 2-[[(2S)-3-cyclopropyl-2-hydroxy-propanoyl]amino]-5,5,7,7-tetramethyl-4H-thieno[2,3-c]pyran-3-carboxamide]",–,0.0267,0.0415,0.0547,0.00262,0.073,5.11
"CC(C)(C)CC(O)C(=O)Nc1sc2c(c1C(N)=O)CC(C)(C)OC2(C)C (stereo not drawn) [Compound 106, 2-[(2-hydroxy-4,4-dimethyl-pentanoyl)amino]-5,5,7,7-tetramethyl-4H-thieno[2,3-c]pyran-3-carboxamide]",–,0.0117,0.026,0.2,0.00054,0.0218,0.981

# Further lines, results first:
EC50 [1] [µM],EC50 [2] [µM],EC50 [3] [µM],EC50 [4] [µM],EC50 [5] [µM],EC50 [6] [µM],EC50 [7] [µM],SMILES
–,1.01,2.21,1.31,0.127,1.45,7.78,"CC1(C)Cc2c(sc(NC(=O)[C@H](O)C(C)(C)C)c2C(N)=O)C(C)(C)O1 [Compound 77, 2-[[(2R)-2-hydroxy-3,3-dimethyl-butanoyl]amino]-5,5,7,7-tetramethyl-4H-thieno[2,3-c]pyran-3-carboxamide]"
–,1.12,0.347,0.888,0.0268,0.947,1.36,"CC(C)OCCOc1c[nH]nc1C(=O)Nc1sc2c(c1C(N)=O)CC(C)(C)OC2(C)C [Compound 101, N-(3-carbamoyl-5,5,7,7-tetramethyl-4H-thieno[2,3-c]pyran-2-yl)-4-(2-isopropoxyethoxy)-1H-pyrazole-3-carboxamide]"
–,0.724,0.466,0.536,0.0187,0.599,1,"CC1(C)Cc2c(sc(NC(=O)c3ccn(CC(F)(F)F)n3)c2C(N)=O)C(C)(C)O1 [Compound 121, N-(3-carbamoyl-5,5,7,7-tetramethyl-4H-thieno[2,3-c]pyran-2-yl)-1-(2,2,2-trifluoroethyl)pyrazole-3-carboxamide]"
–,0.78,0.221,0.464,0.0201,3.33,0.971,"CC1(C)Cc2c(sc(NC(=O)c3ccnn3CC(F)(F)F)c2C(N)=O)C(C)(C)O1 [Compound 151, N-(3-carbamoyl-5,5,7,7-tetramethyl-4H-thieno[2,3-c]pyran-2-yl)-2-(2,2,2-trifluoroethyl)pyrazole-3-carboxamide]"
